The text below walks through data of US20250129103A1, “METHODS FOR TREATMENT OF CANCER” (Frontier Medicines Corporation, priority 2022, published 2025).

≈ marks a conversion by molar mass, not a printed value.

The target of series [1] is KRAS G12C (GMPPNP-loaded) and cRAF (Ras-binding domain) interaction (Homo sapiens (Human), UniProt P01116, C118S/C51S/C80L/G12C). Put plainly: Inhibition of KRAS G12C and cRAF binding (AlphaScreen). As to conditions: KRAS G12C loaded with GMPPNP, cRaf RBD, 2 hours preincubation; read-out: Raf-1 RBD K-Ras IC50. The gist of the method:
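GMPPNP-loaded KRAS G12C in 25 mM Hepes pH 7.4, 150 mM NaCl, 5 mM MgCl2, 0.01% Triton X-100, 10 μM GMPPNP, 2% DMSO, preincubated with compound 2 h at room temperature. cRAF RBD plus AlphaScreen beads then added for 60-90 min; signal read at 570 nm.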
Background: In Alpha technology, singlet oxygen from a donor bead excites a nearby acceptor bead.

Series [2] can be described thus: Determination of logD (1-octanol / phosphate buffer pH 7.4). As to conditions: 1-octanol/phosphate buffer, pH 7.4, pH 7.4, 1-octanol/phosphate buffer; read-out: Log D, pH 7.4. It counts as physicochemical. In short, it runs like this: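 Shake-flask partition between 1-octanol and 100 mM phosphate buffer pH 7.4, each phase presaturated with the other overnight. Tubes shaken 1 h at 800 rpm, room temperature, then centrifuged. Both phases quantified by LCMS and logD calculated from the ratio.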

Series [3] in a line: Determination of kinetic solubility (pH 7.4). It counts as physicochemical. As to conditions: phosphate buffer, pH 7.4, aqueous buffer, kinetic from dmso stock, 50 mM phosphate buffer pH 7.4, read-out: Ksol, pH 7.4. In short, it runs like this:
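Sample mixed with 50 mM phosphate buffer, pH 7.4, vortexed, then shaken 2 h at room temperature and centrifuged. Filtrate analysed by HPLC-UV and LC-MS/MS, with solubility read from peak areas against a standard calibration curve.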

The target of series [4] is KRAS G12C (GMPPNP-loaded) and PI3Ka (Ras-binding domain) interaction (Homo sapiens (Human), UniProt P01116, C118S/C51S/C80L/G12C). Put plainly: Inhibition of KRAS G12C and PI3Ka binding (AlphaScreen). The following applies: KRAS G12C loaded with GMPPNP, PI3Ka RBD, 2 hours preincubation; read-out: PI3K RBD K-Ras IC50. The gist of the method: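 Biotin-AviTag Cys-light KRAS G12C (aa 1-169, C51S/C80L/C118S), GMPPNP-loaded, 1.5 nM, preincubated 2 h with compound, then His-tagged PI3Ka RBD (aa 157-300, 100 nM) plus AlphaScreen beads added for 60-90 min, RT. Buffer Hepes pH 7.4, 10 μM GMPPNP, 2% DMSO; 10-point 1:3 from 50 μM; 4-parameter IC50.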
Sequence of KRAS G12C (GMPPNP-loaded) and PI3Ka (Ras-binding domain) interaction (P01116 other isoform, or with tags, fused parts or gaps G12C/C51S/C80L/C118S): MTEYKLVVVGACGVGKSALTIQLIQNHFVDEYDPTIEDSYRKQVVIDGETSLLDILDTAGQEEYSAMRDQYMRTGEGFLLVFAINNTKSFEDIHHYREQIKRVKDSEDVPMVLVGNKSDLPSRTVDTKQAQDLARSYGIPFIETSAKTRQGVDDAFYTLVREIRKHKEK

Sequence of KRAS G12C (GMPPNP-loaded) and cRAF (Ras-binding domain) interaction (P01116 other isoform, or with tags, fused parts or gaps G12C/C51S/C80L/C118S): as above

On to `C#Cc1c(F)ccc2cccc(-c3ncc4c(N5CCN(C(=O)/C=C/c6cc(C)nc(C)n6)[C@@H](CC#N)C5)nc(OC[C@@]56CCCN5C[C@H](F)C6)nc4c3F)c12` [Compound 101, 2-((S)-1-((E)-3-(2,6-dimethylpyrimidin-4-yl)acryloyl)-4-(7-(8-ethynyl-7-fluoronaphthalen-1-yl)-8-fluoro-2-(((2R,7aS)-2-fluorotetrahydro-1H-pyrrolizin-7a(5H)-yl)methoxy)pyrido[4,3-d]pyrimidin-4-yl)piperazin-2-yl)acetonitrile], for which the IC50 in series [1] and in series [4] was < 10 nM in each case. The logD in series [2] amounted to 3.32. In series [3], the solubility kinetic at 2 h amounted to 1.49 µg/mL (≈ 1.97 µM).

Turning to `N#CC[C@H]1CN(c2nc(OC[C@@]34CCCN3C[C@H](F)C4)nc3c(F)c(-c4cccc5cccc(Cl)c45)ncc23)CCN1C(=O)/C=C/CN1[C@@H]2CC[C@H]1COC2` [Example 87, 2-((S)-1-((E)-4-((1R,5S)-3-oxa-8-azabicyclo[3.2.1]octan-8-yl)but-2-enoyl)-4-(7-(8-chloronaphthalen-1-yl)-8-fluoro-2-(((2R,7aS)-2-fluorohexahydro-1H-pyrrolizin-7a-yl)methoxy)pyrido[4,3-d]pyrimidin-4-yl)piperazin-2-yl)acetonitrile], the IC50 in series [1] and in series [4] was < 10 nM throughout. Besides, the logD in series [2] stood at 3.27. Also, in series [3], the solubility kinetic at 2 h was determined as 69.8 µg/mL (≈ 90.7 µM).

Consider `CO[C@H]1CCN(C/C=C/C(=O)N2CCN(c3nc(OC[C@@]45CCCN4C[C@H](F)C5)nc4c(F)c(-c5cccc6cccc(Cl)c56)ncc34)C[C@@H]2CC#N)C1` [Compound 190], for which the IC50 in series [1] and in series [4] was < 10 nM throughout. Further, the logD in series [2] was 2.86. In addition, in series [3], the solubility kinetic at 2 h stood at 94.7 µg/mL (≈ 125 µM).

In the case of `Cc1nsc(/C=C/C(=O)N2CCN(c3nc(OC[C@@]45CCCN4C[C@H](F)C5)nc4c3CCN(c3cccc5cccc(Cl)c35)C4)C[C@@H]2CC#N)n1` [Compound 127], the IC50 in series [1] and in series [4] was < 10 nM each time. Also, the logD in series [2] was 4.77. Also, the solubility kinetic at 2 h in series [3] was found to be 0.01 µg/mL (≈ 0.0137 µM).

With `CC(C)c1noc(/C=C/C(=O)N2CCN(c3nc(OCC45CCCN4CCC5)nc4c3CCN(c3cccc5ccc(F)c(Cl)c35)C4)C[C@@H]2CC#N)n1` [Compound 126], the IC50 in series [1] and in series [4] was 10 to 100 nM in each case. Further, the logD in series [2] amounted to 4.24. In addition, the solubility kinetic at 2 h in series [3] came out at 0.01 µg/mL (≈ 0.0135 µM).

As for `Cc1nsc(/C=C/C(=O)N2CCN(c3nc(OCC45CCCN4CCC5)nc4c3CCN(c3cccc5cccc(Cl)c35)C4)C[C@@H]2CC#N)n1` [Example 9, (S,E)-2-(4-(7-(8-chloronaphthalen-1-yl)-2-((hexahydro-1H-pyrrolizin-7a-yl)methoxy)-5,6,7,8-tetrahydropyrido[3,4-d]pyrimidin-4-yl)-1-(3-(3-methyl-1,2,4-thiadiazol-5-yl)acryloyl)piperazin-2-yl)acetonitrile], the IC50 in series [1] and in series [4] was < 10 nM in each case. Moreover, the logD in series [2] amounted to 3.55. Also, the solubility kinetic at 2 h in series [3] came out at 67 µg/mL (≈ 94.4 µM).

`N#CC[C@H]1CN(c2nc(OC[C@@]34CCCN3C[C@H](F)C4)nc3c(F)c(-c4cccc(Cl)c4C(F)(F)F)ncc23)CCN1C(=O)/C=C/CN1[C@@H]2CC[C@H]1COC2` [Compound 111, 2-((S)-1-((E)-4-((1R,5S)-3-oxa-8-azabicyclo[3.2.1]octan-8-yl)but-2-enoyl)-4-(7-(3-chloro-2-(trifluoromethyl)phenyl)-8-fluoro-2-(((2R,7aS)-2-fluorotetrahydro-1H-pyrrolizin-7a(5H)-yl)methoxy)pyrido[4,3-d]pyrimidin-4-yl)piperazin-2-yl)acetonitrile]: the IC50 in series [1] and in series [4] was < 10 nM in each case. In addition, the logD in series [2] amounted to 3.23. Moreover, in series [3], the solubility kinetic at 2 h was determined as 133 µg/mL (≈ 169 µM).

Consider `CO[C@@H]1CCN(C/C=C/C(=O)N2CCN(c3nc(OC[C@@]45CCCN4C[C@H](F)C5)nc4c(F)c(-c5cccc6cccc(Cl)c56)ncc34)C[C@@H]2CC#N)C1` [Compound 191], for which the IC50 in series [1] and in series [4] was < 10 nM throughout. Further, the logD in series [2] was determined as 3.18. The solubility kinetic at 2 h in series [3] was determined as 94.9 µg/mL (≈ 125 µM).

Consider `Cc1cc(N)nc([C@@H]2Cc3nc(OC[C@@]45CCCN4C[C@H](F)C5)nc(N4CCN(C(=O)/C=C/c5nc([C@H]6C[C@@H]6F)no5)[C@@H](CC#N)C4)c3C[C@H]2C)c1C(F)(F)F` [Compound 136], for which the IC50 in series [1] and in series [4] was < 10 nM each time. In addition, the logD in series [2] was determined as 4.37. Further, the solubility kinetic at 2 h in series [3] was 0.02 µg/mL (≈ 0.0255 µM).

With `N#CC[C@H]1CN(c2nc(OC[C@@]34CCCN3C[C@H](F)C4)nc3c2CCN(c2cccc4ccc(F)c(Cl)c24)C3)CCN1C(=O)/C=C/c1nc(C2COC2)no1` [Example 8, 2-((S)-4-(7-(8-chloro-7-fluoronaphthalen-1-yl)-2-(((2R,7aS)-2-fluorohexahydro-1H-pyrrolizin-7a-yl)methoxy)-5,6,7,8-tetrahydropyrido[3,4-d]pyrimidin-4-yl)-1-((E)-3-(3-(oxetan-3-yl)-1,2,4-oxadiazol-5-yl)acryloyl)piperazin-2-yl)acetonitrile], the IC50 in series [1] and in series [4] was < 10 nM in each case. The logD in series [2] turned out to be 3.78. Besides, in series [3], the solubility kinetic at 2 h amounted to 0.01 µg/mL (≈ 0.0129 µM).

Regarding `N#CC[C@H]1CN(c2nc(OCC34CCCN3CCC4)nc3c2CCN(c2cccc4cccc(Cl)c24)C3)CCN1C(=O)/C=C/c1nc(C2CC2)no1` [Compound 23], the IC50 in series [1] and in series [4] was 10 to 100 nM throughout. Further, in series [2], the logD is 3.38. For the same molecule, the solubility kinetic at 2 h in series [3] turned out to be 12.5 µg/mL (≈ 17.3 µM).

Turning to `Cc1nccc(/C=C/C(=O)N2CCN(c3nc(OC[C@@]45CCCN4C[C@H](F)C5)nc4c(F)c(-c5nc(N)cc6cccc(Cl)c56)ncc34)C[C@@H]2CC#N)n1` [Compound 148], the IC50 in series [1] and in series [4] was < 10 nM in each case. The logD in series [2] turned out to be 2.25. In series [3], the solubility kinetic at 2 h is 83.8 µg/mL (≈ 111 µM).

Take `N#CC[C@H]1CN(c2nc(OC[C@@]34CCCN3C[C@H](F)C4)nc3c(F)c(-c4cccc5ccc(F)c(F)c45)ncc23)CCN1C(=O)/C=C/CN1C[C@H]2COC[C@H]2C1` [Compound 223]: the IC50 in series [1] and in series [4] was < 10 nM in each case. The logD in series [2] amounted to 3. Moreover, the solubility kinetic at 2 h in series [3] came out at 118 µg/mL (≈ 153 µM).

In the case of `CC(C)c1noc(/C=C/C(=O)N2CCN(c3nc(OC[C@@]45CCCN4C[C@H](F)C5)nc4c3CCN(c3cccc5ccc(F)c(Cl)c35)C4)C[C@@H]2CC#N)n1` [Compound 128], the IC50 in series [1] and in series [4] was 10 to 100 nM throughout. Moreover, in series [2], the logD was found to be 4.56. The solubility kinetic at 2 h in series [3] was 0.01 µg/mL (≈ 0.0132 µM).

Regarding `Cc1nsc(/C=C/C(=O)N2CCN(c3nc(OC[C@@]45CCCN4C[C@H](F)C5)nc4c(F)c(-c5cccc6cccc(Cl)c56)ncc34)C[C@@H]2CC#N)n1` [Compound 138], the IC50 in series [1] and in series [4] was < 10 nM in each case. The logD in series [2] stood at 3.9. Further, the solubility kinetic at 2 h in series [3] amounted to 0.01 µg/mL (≈ 0.0135 µM).

On to `CCc1noc(/C=C/C(=O)N2CCN(c3nc(OCC45CCCN4CCC5)nc4c(F)c(-c5cccc6cccc(Cl)c56)ncc34)C[C@@H]2CC#N)n1` [Compound 26], for which the IC50 in series [1] and in series [4] was 100 to 500 nM each time. Besides, the logD in series [2] is 2.66. The solubility kinetic at 2 h in series [3] is 80.2 µg/mL (≈ 111 µM).
